Patent US11192932B2, “Heparin-binding domain of IGFBP-2 in the treatment of metabolic disorders” (Amolyt Pharma, priority 2018, dated 2021)
“Also recorded” adds a separate entry of the source. No end group written: not given here. *: point of attachment. Stearoyl = CCCCCCCCCCCCCCCCCC(=O)*

Columns and labels:
3T3-LI adipocytes = assay: [3H]-2-deoxyglucose uptake by fully differentiated 3T3-LI adipocytes; assay type: cell-based, mouse; conditions: 3 μg/ml for 24 hours
Method: The cells were exposed to the test compounds at a concentration of 3 μg/ml for 24 hours before testing for [^3H]-2-deoxyglucose uptake.
3T3-LI cells are a mouse fibroblast cell line which when cultured under specific conditions, differentiate into adipocytes.
Differentiation of 3T3-LI cells into adipocytes was achieved using the following protocol. 3T3-L1 cells were seeded in 24-well plates and cultured in 3T3-L1 maintenance medium (DMEM containing 10% fetal bovine serum, 4 mM L-glutamine 1 mM, sodium pyruvate) until the cells were 100% confluent. The cells were then fed with 3T3-L1 maintenance medium and cultured for a further 48 h. To initiate differentiation into adipocytes, the medium was changed to Differentiation medium 1 (DMEM containing 10% fetal bovine serum, 4 mM L-glutamine, 1 mM sodium pyruvate, 0.5 mM IBMX, […]), and cultured for a further 2 days. The medium was then changed to Differentiation medium 2 (DMEM containing 10% fetal bovine serum, 4 mM L-glutamine, 1 mM sodium pyruvate, 1 mg/ml insulin), and cultured for a further 2 days. The medium was then changed to Adipocyte Maintenance medium (DMEM containing 10% fetal bovine serum, 4 mM L-glutamine, 1 mM sodium pyruvate), and cultured for a further 7 days. During this time, the medium was changed every other day. The now fully differentiated adipocytes were utilized for glucose uptake experiments (day 11 from initiation of differentiation). Stock solutions of the HBD1 peptides to be tested were prepared by dilution with 0.9% NaCl solution under sterile conditions in a laminar flow cabinet to a concentration of 1 mg/ml, based on net peptide content. The solutions were homogenized by gentle inversion. Test items were prepared from the stock solutions, and remaining stock solution was aliquoted and stored at −20° C. and used without repeated freeze-thaw cycles.
Glucose uptake experiments were carried our using the following protocol. Prior to beginning the experiment, 100 ml of Krebs Ringer bicarbonate buffer (KRBB)(25 mM Hepes pH 7.4, 118 mM NaCl, 5 mM NaHCO3, 4.7 mM KCl, 1.2 mM KH2PO4, 1.2 mM MgSO4, 2.5 mM CaCl2, 0.2% BSA—Filtered using a 0.2 μm filter) and 100 ml of Incubation medium (DMEM containing 4 mM L-glutamine, 1 mM sodium pyruvate, 1% penicillin streptomycin, 0.2% BSA—Filtered using a 0.2 μm filter) were pre-warmed to 37° C., and 500 ml of KRBB was chilled on ice. Stock solutions of test compounds were diluted to 3 μg/ml final concentrations in pre-warmed Incubation medium and in pre-warmed KRBB. Insulin (positive control), previously diluted 1:1000 in sterile 0.9% NaCl, was further diluted in 10 ml of both medium and buffer to a final concentration of 1 nM. All traces of the medium were carefully removed from the cells using a fine tip. […]

AMPK = AMPK phosphorylation (immunoblot anti-pAMPK T172) in C2C12 myotubes; assay type: cell-based, mouse; conditions: C2C12 myotubes, peptide incubated 8 hours (FIG. 7)
Method: In particular: HBD1 SEQ ID NO: 73 (C18:0-HLGLEEPKK). The AMPK pathway is both insulin and IGF1 independent, but acts ultimately to induce GLUT4 translocation to the cell membrane to facilitate the uptake and metabolism of glucose.
For signaling studies the cells were prepared the same way except 6-well plates were used. After 6 days incubation in differentiating medium, the cells were washed with serum-free medium. The various treatments were then added in serum free medium containing 0.1% BSA. HBD1 peptides were added and incubated for 8 hours. When utilizing IGF-I, incubation was for 15 minutes after IGF-1 addition. Following incubation the cells were lysed in RIPA buffer and sonicated. The cell lysate was centrifuged and the supernatant analyzed for either Akt or AMPK by SDS PAGE using a 10% gel followed by immunoblotting with the appropriate antibody.
To examine further the intracellular transduction pathways utilized by the HBD1 peptides, following treatment with HBD1 peptide SEQ ID NO: 73 (C18:0-HLGLEEPKK), cell lysate proteins, were separated by SDS PAGE and immunoblotted with anti-pAMPK T172.

In the case of “C18:0-HLGLEEPKK (Stearoyl-HLGLEEPKK) [SEQ ID NO: 73]”, the “glucose uptake by 3T3-LI adipocytes” value (3T3-LI adipocytes) is reported as “stimulated increased glucose uptake” and the “phosphorylated AMPK (T172)” value (AMPK) is reported as “dose-dependent increase in phosphorylated AMPK; also recorded: dose-dependent phosphorylation (activation) of the AMPK pathway”.
